According to patent US10294202B2, “Pyrrolidinones as herbicides” (FMC Corporation, priority 2013, dated 2019):

Assays:
[1] = system: barnyardgrass; experiment: Test A pre-/postemergence herbicide test; format: in vivo, Echinochloa crus-galli
Summary of the method: (§1)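 Formulated compound (non-phytotoxic solvent, surfactant) sprayed pre- onto soil of seeded loam/sand pots or post- onto seedlings at 1–2 leaves; ~10 d greenhouse; 0–100 visual control rating versus untreated.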

[2] = system: kochia; experiment: Test A pre-/postemergence herbicide test; format: in vivo, Kochia scoparia
Summary of the method: as §1

[3] = system: ragweed; experiment: Test A pre-/postemergence herbicide test; format: in vivo, Ambrosia elatior
Summary of the method: as §1

[4] = system: ryegrass, Italian; experiment: Test A pre-/postemergence herbicide test; format: in vivo, Lolium multiflorum
Summary of the method: as §1

[5] = system: giant foxtail; experiment: Test A pre-/postemergence herbicide test; format: in vivo, Setaria faberii
Summary of the method: as §1

[6] = system: pigweed; experiment: Test A pre-/postemergence herbicide test; format: in vivo, Amaranthus retroflexus
Summary of the method: as §1

[7] = system: wheat; experiment: Test A pre-/postemergence herbicide test; format: in vivo, Triticum aestivum; settings: Postemergence
Summary of the method: as §1

[8] = system: corn; experiment: Test A pre-/postemergence herbicide test; format: in vivo, Zea mays; settings: Postemergence
Summary of the method: as §1

[9] = system: blackgrass; experiment: Test A postemergence herbicide test; format: in vivo, Alopecurus myosuroides
Summary of the method: (§2)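 Injury was rated visually about 10 days after treatment on a 0 (no effect) to 100 (complete control) scale, compared with untreated plants. Test chemicals were sprayed postemergence onto greenhouse plants 2–10 cm high at one to two leaves, grown in a loam–sand blend.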

[10] = system: galium; experiment: Test A postemergence herbicide test; format: in vivo, Galium aparine
Summary of the method: as §2

[11] = system: rice; experiment: Test B flooded paddy test; format: in vivo, Oryza sativa; settings: Flood, scale of 0 to 100 where 0 is no effect and 100 is complete control
Summary of the method: (§3)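 Plants grown to 2-leaf stage; pots flooded 3 cm above soil and compound applied directly into paddy water, depth held throughout. Visual rating against untreated controls after 13 to 15 days in greenhouse, 0 (no effect) to 100 (complete control).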

[12] = system: sedge, umbrella; experiment: Test B flooded paddy test; format: in vivo, Cyperus difformis; settings: Flood, scale of 0 to 100 where 0 is no effect and 100 is complete control
Summary of the method: as §3

[13] = system: ducksalad; experiment: Test B flooded paddy test; format: in vivo, Heteranthera limosa; settings: Flood, scale of 0 to 100 where 0 is no effect and 100 is complete control
Summary of the method: as §3

[14] = system: barnyardgrass; experiment: Test B flooded paddy test; format: in vivo, Echinochloa crus-galli; settings: Flood, scale of 0 to 100 where 0 is no effect and 100 is complete control
Summary of the method: as §3

[15] = 125 g ai/ha, visual rating, 0 to 100 scale, 0 no effect, 100 complete control, approximately 10 days, preemergence
[16] = Postemergence, 125 g ai/ha, 0 to 100 scale, 0 is no effect, 100 is complete control
[17] = preemergence, 500 g ai/ha, 0 to 100 scale, 0 is no effect and 100 is complete control
[18] = 125 g ai/ha, 0 to 100 scale, 0 is no effect, 100 is complete control
[19] = Postemergence, 500 g ai/ha, 0 to 100 scale (0 no effect, 100 complete control)
[20] = 500 g ai/ha, 0 to 100 scale (0 no effect, 100 complete control)

Structure (SMILES)	Plant response rating, Barnyardgrass [1, 15]	Plant response rating, Barnyardgrass [1, 16]	Plant response rating, Barnyardgrass [1, 17]	Plant response rating, Kochia [2, 15]	Plant response rating, Kochia [2, 16]	Plant response rating, Kochia [2, 17]	Plant response rating, Ragweed [3, 15]	Plant response rating, Ragweed [3, 16]	Plant response rating, Ragweed [3, 17]	Plant response rating, Ryegrass, Italian [4, 15]	Plant response rating, Ryegrass, Italian [4, 16]	Plant response rating, Ryegrass, Italian [4, 17]	Plant response rating, Foxtail, Giant [5, 15]	Plant response rating, Foxtail, Giant [5, 16]	Plant response rating, Foxtail, Giant [5, 17]	Plant response rating, Pigweed [6, 15]	Plant response rating, Pigweed [6, 16]	Plant response rating, Pigweed [6, 17]	Plant response rating, Wheat [7, 18]	Plant response rating, Corn [8, 18]	further results
COc1ccc(C2CNC(=O)C2C(=O)Nc2cccc(F)c2F)cc1C(F)(F)F (stereo not shown) [Compound 234]	60	60	90	20	0	50	0	0	20	30	20	30	70	40	90	0	0	20	0	0	Barnyardgrass plant response rating (0 to 100 scale, 0 is no effect, 100 is complete control) ([1]; Postemergence, 500 g ai/ha): 90; Kochia plant response rating (0 to 100 scale, 0 is no effect, 100 is complete control) ([2]; Postemergence, 500 g ai/ha): 30; Ragweed plant response rating (0 to 100 scale, 0 is no effect, 100 is complete control) ([3]; Postemergence, 500 g ai/ha): 0; Ryegrass, Italian plant response rating (0 to 100 scale, 0 is no effect, 100 is complete control) ([4]; Postemergence, 500 g ai/ha): 30; Foxtail, Giant plant response rating (0 to 100 scale, 0 is no effect, 100 is complete control) ([5]; Postemergence, 500 g ai/ha): 80; Pigweed plant response rating (0 to 100 scale, 0 is no effect, 100 is complete control) ([6]; Postemergence, 500 g ai/ha): 0; Wheat plant response rating (0 to 100 scale, 0 is no effect, 100 is complete control) ([7]; 500 g ai/ha): 40; Corn plant response rating (0 to 100 scale, 0 is no effect, 100 is complete control) ([8]; 500 g ai/ha): 60; Plant response rating, Blackgrass [9, 18]: 0; Blackgrass plant response rating (0 to 100 scale, 0 is no effect, 100 is complete control) ([9]; 500 g ai/ha): 30; Plant response rating, Galium [10, 18]: 30; Galium plant response rating (0 to 100 scale, 0 is no effect, 100 is complete control) ([10]; 500 g ai/ha): 50; Plant response rating, Rice ([11]; 1000 g ai/ha): 0; Plant response rating, Sedge, Umbrella ([12]; 1000 g ai/ha): 0; Plant response rating, Ducksalad ([13]; 1000 g ai/ha): 85; Plant response rating, Barnyardgrass ([14]; 1000 g ai/ha): 75
O=C1NCC(c2ccc(-c3ccccc3F)cc2)C1C(=O)Nc1cccc(F)c1F (stereo not shown) [Compound 235]	0	10	60	0	0	0	0	0	0	0	0	0	40	10	80	0	0	0	0	0	Barnyardgrass plant response rating (0 to 100 scale, 0 is no effect, 100 is complete control) ([1]; Postemergence, 500 g ai/ha): 20; Kochia plant response rating (0 to 100 scale, 0 is no effect, 100 is complete control) ([2]; Postemergence, 500 g ai/ha): 20; Ragweed plant response rating (0 to 100 scale, 0 is no effect, 100 is complete control) ([3]; Postemergence, 500 g ai/ha): 0; Ryegrass, Italian plant response rating (0 to 100 scale, 0 is no effect, 100 is complete control) ([4]; Postemergence, 500 g ai/ha): 0; Foxtail, Giant plant response rating (0 to 100 scale, 0 is no effect, 100 is complete control) ([5]; Postemergence, 500 g ai/ha): 50; Pigweed plant response rating (0 to 100 scale, 0 is no effect, 100 is complete control) ([6]; Postemergence, 500 g ai/ha): 50; Wheat plant response rating (0 to 100 scale, 0 is no effect, 100 is complete control) ([7]; 500 g ai/ha): 0; Corn plant response rating (0 to 100 scale, 0 is no effect, 100 is complete control) ([8]; 500 g ai/ha): 20; Plant response rating, Blackgrass [9, 18]: 0; Blackgrass plant response rating (0 to 100 scale, 0 is no effect, 100 is complete control) ([9]; 500 g ai/ha): 20; Plant response rating, Galium [10, 18]: 50; Galium plant response rating (0 to 100 scale, 0 is no effect, 100 is complete control) ([10]; 500 g ai/ha): 70; Plant response rating, Rice ([11]; 250 g ai/ha): 0; Plant response rating, Rice ([11]; 1000 g ai/ha): 0; Plant response rating, Sedge, Umbrella ([12]; 250 g ai/ha): 0; Plant response rating, Sedge, Umbrella ([12]; 1000 g ai/ha): 0; Plant response rating, Ducksalad ([13]; 250 g ai/ha): 0; Plant response rating, Ducksalad ([13]; 1000 g ai/ha): 50; Plant response rating, Barnyardgrass ([14]; 250 g ai/ha): 0; Plant response rating, Barnyardgrass ([14]; 1000 g ai/ha): 45
O=C1NCC(c2ccc(-c3ccccc3C(F)(F)F)cc2)C1C(=O)Nc1cccc(F)c1F (stereo not shown) [Compound 236]	0	0	0	0	0	0	0	0	30	0	0	50	0	0	0	0	0	0	0	0	Barnyardgrass plant response rating (0 to 100 scale, 0 is no effect, 100 is complete control) ([1]; Postemergence, 500 g ai/ha): 0; Kochia plant response rating (0 to 100 scale, 0 is no effect, 100 is complete control) ([2]; Postemergence, 500 g ai/ha): 0; Ragweed plant response rating (0 to 100 scale, 0 is no effect, 100 is complete control) ([3]; Postemergence, 500 g ai/ha): 0; Ryegrass, Italian plant response rating (0 to 100 scale, 0 is no effect, 100 is complete control) ([4]; Postemergence, 500 g ai/ha): 0; Foxtail, Giant plant response rating (0 to 100 scale, 0 is no effect, 100 is complete control) ([5]; Postemergence, 500 g ai/ha): 0; Pigweed plant response rating (0 to 100 scale, 0 is no effect, 100 is complete control) ([6]; Postemergence, 500 g ai/ha): 0; Wheat plant response rating (0 to 100 scale, 0 is no effect, 100 is complete control) ([7]; 500 g ai/ha): 0; Corn plant response rating (0 to 100 scale, 0 is no effect, 100 is complete control) ([8]; 500 g ai/ha): 0; Plant response rating, Blackgrass [9, 18]: 0; Blackgrass plant response rating (0 to 100 scale, 0 is no effect, 100 is complete control) ([9]; 500 g ai/ha): 0; Plant response rating, Galium [10, 18]: 0; Galium plant response rating (0 to 100 scale, 0 is no effect, 100 is complete control) ([10]; 500 g ai/ha): 0; Plant response rating, Rice ([11]; 1000 g ai/ha): 0; Plant response rating, Sedge, Umbrella ([12]; 1000 g ai/ha): 0; Plant response rating, Ducksalad ([13]; 1000 g ai/ha): 70; Plant response rating, Barnyardgrass ([14]; 1000 g ai/ha): 40
COc1ccc(C2CNC(=O)C2C(=O)Nc2ccccc2C(F)(F)F)cc1C(F)(F)F (stereo not shown) [Compound 240]	20	30	50	0	0	0	0	0	0	0	0	0	70	40	90	0	0	0	0	0	Plant response rating, Barnyardgrass [1, 19]: 90; Plant response rating, Kochia [2, 19]: 0; Plant response rating, Ragweed [3, 19]: 0; Plant response rating, Ryegrass, Italian [4, 19]: 0; Plant response rating, Foxtail, Giant [5, 19]: 80; Plant response rating, Pigweed [6, 19]: 0; Plant response rating, Wheat [7, 20]: 20; Plant response rating, Corn [8, 20]: 20; Plant response rating, Blackgrass [9, 18]: 0; Plant response rating, Blackgrass [9, 20]: 0; Plant response rating, Galium [10, 18]: 0; Plant response rating, Galium [10, 20]: 0; Plant response rating, Rice ([11]; 1000 g ai/ha): 0; Plant response rating, Sedge, Umbrella ([12]; 1000 g ai/ha): 0; Plant response rating, Ducksalad ([13]; 1000 g ai/ha): 85; Plant response rating, Barnyardgrass ([14]; 1000 g ai/ha): 70
